This note sets out measurements from patent US6333330A, “Pyrazolopyrimidinone CGMP PDE5 inhibitors for the treatment of sexual dysfunction” (Pfizer Inc., priority 1998, dated 2001).

This experiment concerns cGMP PDE5. The experiment in a line: In vitro PDE inhibitory activity against cGMP PDE5 (IC50). It is filed as biochemical. To be noted: table of Examples, read-out: IC50 (in vitro activities as inhibitors of cGMP PDE5). As for the experimental part: In vitro PDE inhibitory activities against cyclic guanosine 3', 5'-monophosphate (cGMP) and cyclic adenosine 3',5'-monophosphate (cAMP) phosphodiesterases were determined by measurement of their IC50 values (the concentration of compound required for 50% inhibition of enzyme activity).
The required PDE enzymes were isolated from a variety of sources, including human corpus cavernosum, human and rabbit platelets, human cardiac ventricle, human skeletal muscle and bovine retina, essentially by the method of W. J. Thompson and M. M. Appleman (Biochem., 1971, 10, 311). In particular, the cGMP-specific PDE (PDE5) and the cGMP-inhibited cAMP PDE (PDE3) were obtained from human corpus cavernosum tissue, human platelets or rabbit platelets; the cGMP-stimulated PDE (PDE2) was obtained from human corpus cavernosum; the calcium/calmodulin (Ca/CAM)-dependent PDE (PDE1) from human cardiac ventricle; the cAMP-specific PDE (PDE4) from human skeletal is muscle; and the photoreceptor PDE (PDE6) from bovine retina.
Assays were performed using a modification of the "batch" method of W. J. Thompson et al. (Biochem., 1979, 18, 5228).

What is called IC50 is the concentration that inhibits the measured activity by half. In the case of `CCCOc1ccc(S(=O)(=O)N2CCN(CCO)CC2)cc1-c1nc2c(C(N)=O)nn(Cc3ccccn3)c2c(=O)[nH]1` [Example 5], the IC50 was 2.8 nM. To `CCCOc1ccc(S(=O)(=O)N2CCN(C)CC2)cc1-c1nc2c(C(=O)NC)nn(Cc3cccnc3)c2c(=O)[nH]1` [Example 8] belongs 4.1 nM; to `CCOc1ccc(S(=O)(=O)N2CCN(C)CC2)cc1-c1nc2c(C(=O)NC)nn(Cc3ccccc3)c2c(=O)[nH]1` [Example 19, 1-Benzyl-5-[2-ethoxy-5-(4-methylpiperazin-1-ylsulphonyl)]-7-oxo-1,6-dihydro-1H-pyrazolo[4,3-d]pyrimidine-3-N-methylcarboxamide], 3.4 nM. The value for `CCN1CCN(S(=O)(=O)c2cnc(OCCOC)c(-c3nc4c(C(N)=O)nn(Cc5ccccn5)c4c(=O)[nH]3)c2)CC1` [Example 33, 5-[5-(4-Ethylpiperazin-1-ylsulphonyl)-2-(2-methoxyethoxy)pyridin-3-yl]-7-oxo-1-(pyridin-2-yl)methyl-1,6-dihydro-1H-pyrazolo[4,3-d]pyrimidine-3-carboxamide] was 2.8 nM; that for `CCOc1ncc(S(=O)(=O)N2CCN(CC)CC2)cc1-c1nc2c(-c3cccnc3)n(Cc3ncccn3)nc2c(=O)[nH]1` [Example 42] was 2.26 nM.
